Data: patent publication EP0014434A1, “Right-turning basic derivative of 9,10-ethanoanthracene, process for its preparation and pharmaceutical preparations containing it” (priority 1979, dated 1980)

How the values were obtained:
[1] = tested on: Noradrenalin- Aufnahme ins Rattenherz; assay: Inhibition of noradrenaline uptake into rat heart (method of Maitre, Staehelin and Bein); type: in vivo, Ratte; conditions: po, Formel I tested as Hydrochlorid, read-out: ED50 Hemmung der Noradrenalin- Aufnahme ins Rattenherz
Description: Neurobiochemisch zeigt das Hydrochlorid der Verbindung der Formel I eine starke Hemmung der Noradrenalin- Aufnahme ins Rattenherz gemäss der Methode von L. Maitre, M. Staehelin und H. Bein, Biochem. Pharmacol. 20, 2169 (1971) mit einer ED50 von etwa 0,3 mg/kg p.o., während die ED50 des entsprechenden Racemats bei etwa 1,5 mg/kg p.o. liegt, wie auch eine starke Hemmung des Noradrenalindepletierenden Effektes von H 77/77 (3-Hydroxy-4,a-dimethyl- phenäthylamin) im Rattenhirn als indirekte Anzeige der Noradrenalin-Aufnahme-Hemmung [A. Carlsson, H. Corrodi, K. Fuxe und T. Hoefkelt, Europ. J. Pharmacol. 5, 367 (1969)] mit einer ED50 von etwa 2 mg/kg p.o., gegenüber einer ED50 von etwa 10 mg/kg p.o. des entsprechenden Racemats. Die endogenen Konzentrationen von Noradrenalin und von Dopamin im Rattenhirn, gemessen nach P. Waldmeier, de Herdt und L. Maitre [Chir. Chem. 20, 81, (1974)] werden weder vom Hydrochlorid der Verbindung der Formel I in Dosen bis 100 mg/kg bzw. bis 30 mg/kg p.o., noch vom entsprechenden Racemat in Dosen bis 10 mg/kg bzw. bis 100 mg/kg beeinflusst.

[2] = tested on: endogenen Konzentrationen von Dopamin im Rattenhirn; assay: Endogenous dopamine concentration in rat brain; type: in vivo, Ratte; conditions: no influence up to this dose, p.o. for Formel I (Hydrochlorid)
[3] = tested on: durch 2 mg/kg sc. Reserpin induzierte Ptosis; assay: Antagonism of reserpine-induced ptosis; type: in vivo, männlichen Ratten
Description: (§1) Das S-(+)-o-[Methylamino)methyl]-9,10-äthanoan- thracen-9(10H)-äthanol und seine Säureadditionssalze besitzen wertvolle pharmakologische Eigenschaften. Vor allem zeigen sie sehr starke Wirkungen in Tests, die für Antidepressiva charakteristisch sind. Eine deutliche Antagonisierung der durch 2 mg/kg sc. Reserpin induzierten Hypothermie an männlichen Mäusen [Askew, Life Sci. 10, 725 (1963),und Benz und Waser, Dissertation 1971, Pharmakolog. […] Die durch 2 mg/kg sc. Reserpin induzierte Ptosis an männlichen Ratten [Rubin et al, J. Pharmacol. Exp. Therap.

[4] = tested on: endogenen Konzentrationen von Noradrenalin im Rattenhirn; assay: Endogenous noradrenaline concentration in rat brain; type: in vivo, Ratte; conditions: no influence up to this dose, p.o. for Formel I (Hydrochlorid)
[5] = tested on: Noradrenalindepletierenden Effektes von H 77/77 (3-Hydroxy-4,a-dimethyl- phenäthylamin) im Rattenhirn; assay: Inhibition of the noradrenaline-depleting effect of H 77/77 in rat brain (indirect measure of noradrenaline uptake inhibition); type: in vivo, Ratte; conditions: po, Formel I tested as Hydrochlorid, read-out: ED50 Hemmung des Noradrenalindepletierenden Effektes von H 77/77 im Rattenhirn
[6] = tested on: exploratorischen Aktivität der Maus; assay: Exploratory activity; type: in vivo; conditions: mouse; equal doses of Formel I (tested as Hydrochlorid) and Racemat
[7] = tested on: isolierten rechten Vorhof; design: species or system Meerschweinchen
[8] = tested on: durch 2 mg/kg sc. Reserpin induzierten Hypothermie; assay: Antagonism of reserpine-induced hypothermia; type: in vivo, männlichen Mäusen; conditions: male mice, Hydrochlorid compared with the corresponding Racemat
Description: as §1

[9] = Acute toxicity; type: in vivo
[10] = tested on: durch Tetrabenazin induzierten Katalepsie der Ratte; assay: Antagonism of tetrabenazine-induced catalepsy; type: in vivo; conditions: rat; oral administration; Hydrochlorid compared with Racemat
Text: (§2) Therap. 125, 28-34 (1959)], während bei der Antagonisierung der durch Tetrabenazin induzierten Katalepsie der Ratte nach oraler Verabreichung, und bei der Potenzierung der durch G 29 505 [2-(4-Allyl-2-methoxyphenoxy)-N,N-diäthyl-acetamid] bewirkten Narkose der Maus [W. Theobald und R. Domenjoz, Arzneimittelforsch.

[11] = tested on: durch G 29 505 [2-(4-Allyl-2-methoxyphenoxy)-N,N-diäthyl-acetamid] bewirkten Narkose der Maus; assay: Potentiation of G 29 505-induced narcosis; type: in vivo; conditions: mouse; intraperitoneal administration; Hydrochlorid compared with Racemat
Text: as §2

[12] = tested on: Histamin-Toxizität; assay: Antagonism of histamine toxicity; type: in vivo, Meerschweinchen; conditions: guinea pig; equal doses of Formel I (tested as Hydrochlorid) and Racemat
Text: as §2

[13] = tested on: durch Fuss-Schock induzierten Kampfreaktion der Maus; assay: Foot-shock induced fighting reaction; type: in vivo; conditions: mouse; equal doses of Formel I (tested as Hydrochlorid) and Racemat
Text: as §2

SMILES	ED50 [1]	Dosen, bis zu denen die endogene Konzentration von Dopamin im Rattenhirn nicht beeinflusst wird [2]	Dosierung, die die Reserpin induzierte Ptosis völlig aufhebt ([3]; male rats, relative to 0,3 mg/kg p.o. of the Hydrochlorid of Formel I)	Dosen, bis zu denen die endogene Konzentration von Noradrenalin im Rattenhirn nicht beeinflusst wird [4]	ED50 [5]	Reserpin induzierte Ptosis ([3]; male rats, 0,3 mg/kg p.o. of the Hydrochlorid)	Reserpin induzierte Ptosis ([3]; male rats, O,1 mg/kg p.o. of the Hydrochlorid)	exploratorische Aktivität, Vergleich mit Racemat [6]	negativ chronotrope Wirkung, Vergleich mit Racemat [7]	Antagonisierung der Reserpin induzierten Hypothermie, Vergleich mit Racemat [8]	akute Toxizität, Vergleich mit Racemat ([9]; intravenous administration)	akute Toxizität, Vergleich mit Racemat ([9]; oral administration)	Antagonisierung der durch Tetrabenazin induzierten Katalepsie, Vergleich mit Racemat [10]	Potenzierung der durch G 29 505 bewirkten Narkose, Vergleich mit Racemat [11]	Antagonisierung der Histamin-Toxizität, Vergleich mit Racemat [12]	durch Fuss-Schock induzierte Kampfreaktion, Vergleich mit Racemat [13]
CNCC(O)CC12CCC(c3ccccc31)c1ccccc12 (racemic) [Racemat, a-[(Methylamino)methyl]-9,10-äthanoanthracen-9(10H)-äthanol, reference compound]	~1.5 mg/kg	≤ 100 mg/kg	erheblich höheren Dosierung	≤ 10 mg/kg	~10 mg/kg											
CNC[C@@H](O)CC12CCC(c3ccccc31)c1ccccc12 [Verbindung der Formel I, S-(+)-a-[(Methylamino)methyl]-9,10-äthanoanthracen-9(10H)-äthanol]	~0.3 mg/kg	≤ 30 mg/kg		≤ 100 mg/kg	~2 mg/kg	aufgehoben	deutlich vermindert	ungefähr dieselben Wirkungen	schwächer	stärker als die Wirkung von mehrfachen Dosen des entsprechenden Racemats	ungefähr gleich	ungefähr gleich	in ungefähr der halben Dosierung gleich wirksam	in ungefähr der halben Dosierung gleich wirksam	ungefähr dieselben Wirkungen	ungefähr dieselben Wirkungen
